According to BindingDB's records for doi:10.7270/Q2N8786X (Vanderbilt Screening Center For Gpcrs, Ion Channels and …, 2009):

Target: T1, Muscarinic acetylcholine receptor M5 (Homo sapiens, UniProt P08912)
T1 sequence (P08912 whole entry): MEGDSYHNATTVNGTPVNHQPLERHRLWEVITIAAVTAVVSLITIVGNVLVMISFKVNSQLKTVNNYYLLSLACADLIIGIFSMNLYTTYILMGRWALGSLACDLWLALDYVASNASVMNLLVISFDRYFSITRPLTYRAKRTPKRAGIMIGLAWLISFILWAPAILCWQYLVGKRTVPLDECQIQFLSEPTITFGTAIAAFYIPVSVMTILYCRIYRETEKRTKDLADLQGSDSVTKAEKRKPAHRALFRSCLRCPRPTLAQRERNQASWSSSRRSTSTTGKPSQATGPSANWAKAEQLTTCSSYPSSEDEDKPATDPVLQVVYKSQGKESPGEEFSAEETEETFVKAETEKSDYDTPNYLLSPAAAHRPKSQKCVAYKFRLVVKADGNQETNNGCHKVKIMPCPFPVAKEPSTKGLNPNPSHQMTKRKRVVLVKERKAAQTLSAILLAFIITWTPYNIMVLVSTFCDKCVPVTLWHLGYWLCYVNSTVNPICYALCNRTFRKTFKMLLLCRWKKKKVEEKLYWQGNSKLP
Test: binding competition at muscarinic M5 – biochemical, [3H]N-methylscopolamine (AID 2192)
Details: inactive by the depositor's call

With `COc1ccc(CN2C(=O)C(=O)c3cc(OC(F)(F)F)ccc32)cc1` [VU0238429] the Ki was 1160 nM.
